Values joined by “and” are separate entries in the source; they are usually repeats but may differ in a detail not shown here. Identical values can stand only once.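 These data come from cells grown in 96-well plates and exposed to compound for 48 hours at five concentrations. The concentration for 50% growth inhibition is given as GI50. TGI: total growth inhibition.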
What was measured:
Assay in all cases: inhibition of tumour cell growth, NCI panel, 48 h
786-0 renal = test system: 786-0 renal
DU-145 prostate = test system: DU-145 prostate
NCI-H226 lung = test system: NCI-H226 lung
NCI-H460 lung = test system: NCI-H460 lung
SF-268 CNS = test system: SF-268 CNS
SK-MEL-5 melanoma = test system: SK-MEL-5 melanoma
SR leukemia = test system: SR leukemia

In the case of `COc1ccc(-n2c(CCC(=O)O)nc3c2C(=O)c2ccccc2C3=O)cc1`, the TGI (786-0 renal) was over 100 µM, the TGI (DU-145 prostate) was over 100 µM and the TGI (NCI-H226 lung) was over 100 µM. For the same compound, the TGI (NCI-H460 lung) was over 100 µM, the TGI (SF-268 CNS) was over 100 µM and the TGI (SK-MEL-5 melanoma) was over 100 µM. It also gave a TGI (SR leukemia) of over 100 µM.

For `C=C1CC(C)(COc2ccc3c(C)c(Cl)c(=O)oc3c2)OC1=O` (stereo not given), the TGI (786-0 renal) was 4.65 µM, the TGI (DU-145 prostate) was 6.8 µM and the TGI (NCI-H226 lung) was 17.8 µM. It also gave a TGI (NCI-H460 lung) of 21.2 µM, a TGI (SF-268 CNS) of 19.2 µM and a TGI (SK-MEL-5 melanoma) of 4.2 µM. For the same compound, the TGI (SR leukemia) was 6.47 µM.

`Cc1c(C)c2c(c(N)c1C#N)C(=O)N(O)C2=O` gave a TGI (786-0 renal) of over 100 µM, a TGI (DU-145 prostate) of over 100 µM and a TGI (NCI-H226 lung) of over 100 µM. The TGI (NCI-H460 lung) was over 100 µM, the TGI (SF-268 CNS) was over 100 µM and the TGI (SK-MEL-5 melanoma) was over 100 µM. The TGI (SR leukemia) was over 100 µM.

In the case of `CC(CSC(=N)N)C(N)=O` (stereo not given), the TGI (786-0 renal) was over 100 µM, the TGI (DU-145 prostate) was over 100 µM and the TGI (NCI-H226 lung) was over 100 µM. The TGI (NCI-H460 lung) was over 100 µM, the TGI (SF-268 CNS) was over 100 µM and the TGI (SK-MEL-5 melanoma) was over 100 µM. For the same compound, the TGI (SR leukemia) was over 100 µM.

Compound `CCN(CC)CCCNc1c2c(Cl)cc(Cl)cc2nc2nc(=O)[nH]c(C)c12` has a TGI (786-0 renal) of 38.1 µM, a TGI (DU-145 prostate) of over 100 µM and a TGI (NCI-H226 lung) of over 100 µM. It also gave a TGI (NCI-H460 lung) of 37.1 µM, a TGI (SF-268 CNS) of 52.5 µM and a TGI (SK-MEL-5 melanoma) of over 100 µM. For the same compound, the TGI (SR leukemia) was over 10 µM.

`CN(C)c1ccc(/C=C/C(=O)c2ccc(O)cc2)cc1` gave a TGI (786-0 renal) of over 78.3 µM, a TGI (DU-145 prostate) of 63.5 µM and a TGI (NCI-H226 lung) of over 100 µM. It also gave a TGI (NCI-H460 lung) of 22.8 µM, a TGI (SF-268 CNS) of over 100 µM and a TGI (SK-MEL-5 melanoma) of 23.3 µM. The TGI (SR leukemia) was 3.02 µM.

Compound `CC(C)(C)OC(=O)NC1CCCC1C(=O)C1=CCCC1` (stereo not given) has a TGI (786-0 renal) of over 100 µM, a TGI (DU-145 prostate) of over 100 µM and a TGI (NCI-H226 lung) of over 100 µM. It also gave a TGI (NCI-H460 lung) of over 100 µM, a TGI (SF-268 CNS) of over 100 µM and a TGI (SK-MEL-5 melanoma) of over 100 µM. It also gave a TGI (SR leukemia) of over 100 µM.

`C[C@@H](CC(O)C(O)C(C)(C)O)C1CCC23CC12CCC1[C@@]2(C)CCC(O)C(C)(C)C2CC(OC2OC(CO)C(O)C(O)C2O)[C@]13C` (stereo not given in full) showed a TGI (786-0 renal) of over 10 µM, a TGI (DU-145 prostate) of over 10 µM and a TGI (NCI-H226 lung) of over 10 µM. For the same compound, the TGI (NCI-H460 lung) was over 10 µM, the TGI (SF-268 CNS) was over 10 µM and the TGI (SK-MEL-5 melanoma) was over 10 µM.

For `FC(F)(F)c1ccccc1C1SCC2=Nc3ccccc3CN21` (stereo not given), the TGI (786-0 renal) was 24.2 µM, the TGI (DU-145 prostate) was 25.4 µM and the TGI (NCI-H226 lung) was 26.7 µM. For the same compound, the TGI (NCI-H460 lung) was 31.8 µM, the TGI (SF-268 CNS) was 29.2 µM and the TGI (SK-MEL-5 melanoma) was 27.9 µM. For the same compound, the TGI (SR leukemia) was over 100 µM.

`CC1=CC(=O)CC2(C)CCC(C(C)CC(=O)CC(C)C)CC12OO` (stereo not given) was tested, and the TGI (786-0 renal) was 22.7 µM and 26 µM, the TGI (DU-145 prostate) was 32.3 µM and 29.5 µM and the TGI (NCI-H226 lung) was 43.5 µM and 37.7 µM. The GI50 (NCI-H460 lung) was 11.6 µM and 31 µM, the TGI (NCI-H460 lung) was 25.1 µM and > 100 µM and the TGI (SF-268 CNS) was 44.1 µM and 32.6 µM. The TGI (SK-MEL-5 melanoma) was 35.5 µM and 30.3 µM and the TGI (SR leukemia) was 41.5 µM and 41.4 µM.

`[N-]=[N+]=Nc1ccccc1-c1ccccc1[N+](=O)[O-]` was tested, and the TGI (786-0 renal) was over 100 µM, the TGI (DU-145 prostate) was over 100 µM and the TGI (NCI-H460 lung) was 99 µM. The TGI (SF-268 CNS) was over 100 µM and the TGI (SR leukemia) was over 100 µM.

`COc1ccc(C2c3cc4c(cc3OC(NNc3ccccc3)C2C)OCO4)cc1` (stereo not given) gave a TGI (786-0 renal) of 51.8 µM, a TGI (DU-145 prostate) of over 100 µM and a TGI (NCI-H226 lung) of over 100 µM. The TGI (NCI-H460 lung) was over 100 µM, the TGI (SF-268 CNS) was over 100 µM and the TGI (SK-MEL-5 melanoma) was 99.4 µM. It also gave a TGI (SR leukemia) of 16.3 µM.

`COC(=O)C(CC(C)C)NC(=O)C(NC(=O)c1ccc(-c2ccc(Cl)cc2Cl)o1)C(C)C` (stereo not given) gave a TGI (786-0 renal) of 35.1 µM, a TGI (DU-145 prostate) of 74.4 µM and a TGI (NCI-H226 lung) of over 100 µM. It also gave a TGI (NCI-H460 lung) of 34.2 µM, a TGI (SF-268 CNS) of 56.6 µM and a TGI (SK-MEL-5 melanoma) of 49.9 µM. For the same compound, the TGI (SR leukemia) was over 100 µM.

Compound `C1CNOCCCONCCCNOCCCONC1` has a TGI (786-0 renal) of over 100 µM, a TGI (DU-145 prostate) of over 100 µM and a TGI (NCI-H226 lung) of over 100 µM. For the same compound, the TGI (NCI-H460 lung) was 94 µM, the TGI (SF-268 CNS) was over 100 µM and the TGI (SK-MEL-5 melanoma) was over 100 µM.

From PubChem BioAssay (NCI)
